# According to publication PMC4866688, “Trypanosoma brucei DHFR-TS Revisited: Characterisation of a Bifunctional and Highly Unstable Recombinant Dihydrofolate Reductase-Thymidylate Synthase” (PLoS Neglected Tropical Diseases, 2016):
# Values joined by “and” are separate entries in the source; they are usually repeats but may differ in a detail not shown here. Equal entries are not always repeated. Where two headings read alike, the source gives them in different places.
# Experiments:
# [1] = molecular target: T1, T. brucei TS (Tsf-TbDHFR-TS) (Trypanosoma brucei brucei, UniProt Q27783); experiment: Inhibition of TS activity of Tsf-TbDHFR-TS in clarified thyA- E. coli lysate; format: biochemical; details: for Ki: TS Ki, T. brucei; for Ki / TS Ki, T. brucei: 100 μM CH2THF, 200 μM dUMP, 200 nM Tsf-TbDHFR-TS, Inactive * = no inhibition at 25 μM, ** = no inhibition at 100 μM
# T1 construct: The open reading frame of DHFR-TS was amplified by PCR from T. brucei gDNA using specific oligonucleotides; made in house; host or cells: thyA- E. coli derived from BL21 Star (DE3); unpurified clarified lysate
# Experimental: (§1) The initial characterisation of TS was also carried out using a spectrophotometric assay. […] Enzymatic reactions were initiated by the addition of CH2THF (200 μM, Shircks Laboratories) and initial rates of CH2THF oxidation to DHF monitored by the increase in absorbance at 340 nm (ε = 6,200 M^-1 cm^-1). […] Residual 5-[^3H]-dUMP was removed by the addition of 200 μl of 10% (w/v) activated charcoal (Sigma). Aliquots (100 μl) of the supernatants were added to 2 ml of scintillation fluid (Pico-Fluor 40™, Packard Bioscience) and radioactivity determined using a Beckmann LS 6500 Scintillation Counter. To determine TS activity in clarified T. brucei lysates the incubation time was increased to 30 min and the assay volume was increased to ~200 μl. […] For stability experiments all lysates were desalted using 0.5 ml Zeba Spin Desalting Columns (7K MWCO). Protein concentrations were determined using the BioRad protein assay based on the method of Bradford. Inhibitors (8-point doubling dilutions) were assayed using the radiometric method in the presence of 100 μM CH2THF, 200 μM dUMP and 200 nM Tsf-TbDHFR-TS.
# Target sequence in this assay (Q27783 whole entry): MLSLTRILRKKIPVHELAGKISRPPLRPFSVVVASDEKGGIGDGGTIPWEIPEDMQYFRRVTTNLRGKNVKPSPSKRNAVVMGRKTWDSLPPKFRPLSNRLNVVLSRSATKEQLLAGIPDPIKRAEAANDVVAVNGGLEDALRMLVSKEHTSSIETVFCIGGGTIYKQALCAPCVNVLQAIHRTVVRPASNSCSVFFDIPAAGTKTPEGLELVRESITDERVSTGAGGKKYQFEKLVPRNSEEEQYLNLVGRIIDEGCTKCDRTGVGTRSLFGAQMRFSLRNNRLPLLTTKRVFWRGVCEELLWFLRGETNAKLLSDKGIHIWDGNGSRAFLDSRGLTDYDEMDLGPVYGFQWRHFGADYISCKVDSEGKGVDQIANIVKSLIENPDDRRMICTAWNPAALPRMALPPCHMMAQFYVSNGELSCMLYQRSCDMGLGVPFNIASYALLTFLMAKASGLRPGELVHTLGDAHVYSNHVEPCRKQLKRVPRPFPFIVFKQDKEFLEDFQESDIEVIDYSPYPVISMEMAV
# Target sequence in this assay (P0A6P1 whole entry, further chain): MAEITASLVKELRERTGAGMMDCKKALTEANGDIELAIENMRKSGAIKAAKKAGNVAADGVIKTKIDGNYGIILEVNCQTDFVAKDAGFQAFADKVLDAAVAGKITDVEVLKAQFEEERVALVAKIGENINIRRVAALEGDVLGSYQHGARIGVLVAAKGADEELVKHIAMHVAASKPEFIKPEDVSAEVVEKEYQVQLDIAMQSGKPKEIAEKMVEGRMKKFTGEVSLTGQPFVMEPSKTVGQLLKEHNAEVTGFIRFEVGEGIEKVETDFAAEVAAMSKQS
# [2] = molecular target: T1, T. brucei TS (Tsf-TbDHFR-TS); experiment: Kinetic analysis of TS activity (substrates); format: biochemical; details: clarified E. coli lysate, radiometric assay; read-out: CH2THF Km^app
# Experimental: The initial characterisation of TS was also carried out using a spectrophotometric assay. Owing to the pronounced instability of the recombinant protein, clarified ThyA^- E. coli lysates were used for characterisation, where the concentration of TS was calculated based on DHFR activity. […] . Enzymatic reactions were initiated by the addition of CH2THF (200 μM, Shircks Laboratories) and initial rates of CH2THF oxidation to DHF monitored by the increase in absorbance at 340 nm (ε = 6,200 M^-1 cm^-1). This method is not suitable for determination of the Km^app for CH2THF and a radiometric method was used instead. This method measures the release of tritiated water from 5-[^3H]-dUMP (American Radiochemicals, 14.3 Ci mmol^-1). Assays (40 μl final volume) contained 200 nM TS and varying amounts of CH2THF (37.5 μM– 4.8 mM) in DHFR-assay buffer. Reactions were initiated by adding 200 μM [^3H]-dUMP (5.55 × 10^5 dpm nmol^-1) and stopped after 10 min by the addition of 20 μl trichloroacetic acid. Residual 5-[^3H]-dUMP was removed by the addition of 200 μl of 10% (w/v) activated charcoal (Sigma). Aliquots (100 μl) of the supernatants were added to 2 ml of scintillation fluid (Pico-Fluor 40™, Packard Bioscience) and radioactivity determined using a Beckmann LS 6500 Scintillation Counter. […] Protein concentrations were determined using the BioRad protein assay based on the method of Bradford. […]
# Target sequence in this assay (Q27783 whole entry): as the sequence (Q27783 whole entry) above
# Target sequence in this assay (P0A6P1 whole entry partner): as the sequence (P0A6P1 whole entry, further chain) above
# [3] = molecular target: T2, T. brucei DHFR (Tsf-TbDHFR-TS) (Trypanosoma brucei brucei, UniProt Q27783); experiment: Kinetic analysis of DHFR activity (substrates); format: biochemical; design: The open reading frame of DHFR-TS was amplified by PCR from T. brucei gDNA using specific oligonucleotides; made in house; host or cells: thyA- E. coli derived from BL21 Star (DE3); details: for Activity as substrate for T. brucei DHFR: <17,000-fold (folate) and <2,300-fold (pterins) compared to DHF as substrate
# Human TS = details: cited from earlier work
# [4] = molecular target: T2, T. brucei DHFR (Tsf-TbDHFR-TS); experiment: Inhibition of DHFR activity of recombinant Tsf-TbDHFR-TS (spectrophotometric, 340 nm); details: for Modality of inhibition of DHFR: with respect to DHF
# Experimental: DHFR activity was determined spectrophotometrically at 340 nm [18]. DHFR (5 nM) was pre-incubated with 100 μM NADPH (Medford) in assay buffer (50 mM HEPES, pH 7.4, containing 100 mM KCl) for 1 min at 25°C (1 ml final assay volume), before the addition of 100 μM DHF (Sigma Aldrich). […] The Km^app values for DHFR substrates were determined by varying the concentration of one substrate in the presence of a fixed saturating concentration of the other. IC50 values were determined using 8-point doubling dilutions of inhibitor under the above standard assay conditions.
# Results were analysed by non-linear regression using GraFit v 5.0.13 (Erithacus Software). Km^app values were determined using the Michaelis-Menten equation. IC50 values were determined using eq 1 and Ki values calculated using the Cheng-Prusoff eq 2 [23].
# [5] = system: T. brucei bloodstream-form 'single marker' S427; experiment: Growth inhibition of wild type T. brucei, 72 h, resazurin-based assay; format: cell-based; details: Trypanosoma brucei
# Experimental: Wild type (WT) T. brucei bloodstream-form ‘single marker’ S427 were cultured in HMI9T medium supplemented with 2.5 μg ml^-1 G418 to maintain expression of T7 RNA polymerase and the tetracycline repressor protein [27]. HMI9T medium (standard media for T. brucei cell culture) contains high concentrations of folate (~9 μM) and thymidine (~160 μM) principally from IMDM and 10% Serum Plus components. A medium based on HMI9T, only lacking Serum Plus, folate and thymidine was prepared in-house, named trypanosome base media (TBM; the residual folate is provided by the serum component). A comparison of these media is described in S2 Table. WT T. brucei cells grow normally in TBM and the rate of growth is similar to HMI9T in TBM with no supplementation, supplementation with 9 μM folate, 160 μM thymidine or supplementation with both folate and thymidine (7–8 h doubling time).
# EC50 of antifolates against T. brucei were determined in 96-well microtitre plates. Serial doubling dilutions of antifolate drugs (10–50 mM stocks prepared in DMSO) were prepared in 100 μl of the appropriate medium and trypanosomes (resuspended in the same medium) added in 100 μl to give a final concentration of 2.5 × 10^3 cells ml^-1. All wells, including controls, contained a final volume of 0.5% DMSO. Cultures were incubated for 72 h at 37°C / 5% CO2 before cell density was determined using a resazurin-based assay. EC50 values were calculated using GraFit v 5.0.13 (Erithacus Software) with a 3-parameter non-linear regression from triplicate readings. Antifolates were tested against parasites cultured in TBM; this allowed for the addition of thymidine (160 μM) and folate (9 μM) respectively.
# Human DHFR = details: cited from earlier work
# [6] = molecular target: T1, T. brucei TS (Tsf-TbDHFR-TS); experiment: Stabilisation of recombinant T. brucei TS activity in desalted, diluted lysate; format: biochemical
# Experimental: as §1
# Target sequence in this assay (Q27783 whole entry): as the sequence (Q27783 whole entry) above
# Target sequence in this assay (P0A6P1 whole entry partner): as the sequence (P0A6P1 whole entry, further chain) above
# [7] = TBM (folate and thymidine deficient), read-out: EC50, No addition
# [8] = TBM + folate (9 μM), read-out: EC50, + Folate
# [9] = TBM + thymidine (160 μM) + folate (9 μM), read-out: EC50, + Thymidine + Folate
# [10] = TBM + thymidine (160 μM), read-out: EC50, + Thymidine
# [11] = DHFR Ki, T. brucei, recombinant TbDHFR-TS, from IC50 (Cheng-Prusoff) or Morrison equation for tight binders, Inactive ** = no inhibition at 100 μM
# [12] = DHFR Ki (competitive inhibition, global fit, Fig 5), varying DHF, fixed amounts of inhibitor, non-linear regression
# T2 sequence (Q27783 whole entry): as the sequence (Q27783 whole entry) above
compound,measurement,setting,value
OCCS [2-mercaptoethanol],EC50,"[1]; reducing agent at higher concentrations, clarified lysate",~100000 µM
"Nc1nc2c(c(=O)[nH]1)N1CN(c3ccc(C(=O)N[C@@H](CCC(=O)O)C(=O)O)cc3)CC1CN2 (stereo partly drawn) [CH2THF, N^5, N^10-methylenetetrahydrofolate]",Km,[2],470 ± 50 µM
"Nc1nc(=O)c2c([nH]1)NCC(CNc1ccc(C(=O)N[C@@H](CCC(=O)O)C(=O)O)cc1)=N2 [DHF, dihydrofolate]",Km,"[3]; Tsf-TbDHFR-TS, purified, 50 mM HEPES pH 7.4, 100 mM KCl, read-out: DHF Km^app",4.1 ± 0.6 µM
same,Km,"[3]; Tsf-cleaved TbDHFR-TS, read-out: DHF Km^app",4.2 ± 0.5 µM
same,Km,"[3]; purified enzyme, read-out: DHFR Km^app (Fig 4 legend)",4.1 ± 0.6 µM
"O=c1[nH]c(=O)n([C@H]2C[C@H](O)[C@@H](COP(=O)(O)O)O2)cc1F [FdUMP, 5-fluorodeoxyuridine monophosphate]",Ki,[1],0.014 µM and 0.0138 µM
same,Modality of inhibition of TS,[1]; dUMP-competitive,tight-binding inhibition
same,Ki,Human TS; ref Dolnick and Cheng [32],0.0017 µM
same,"DHFR Ki, T. brucei","[4]; recombinant TbDHFR-TS, from IC50 (Cheng-Prusoff) or Morrison equation for tight binders, Inactive ** = no inhibition at 100 μM",Inactive ^**
Nc1nc(=O)c2nc(CNc3ccc(C(=O)N[C@@H](CCC(=O)O)C(=O)O)cc3)cnc2[nH]1 [Folic acid],Activity as substrate for T. brucei DHFR,[3],inactive
"CN(Cc1cnc2nc(N)nc(N)c2n1)c1ccc(C(=O)N[C@@H](CCC(=O)O)C(=O)O)cc1 [Methotrexate, methotrexate]",EC50,[5]; [7],0.012 ± 0.001 µM
same,EC50,[5]; [8],1.31 ± 0.13 µM
same,EC50,[5]; [9],8.16 ± 2.78 µM
same,EC50,[5]; [10],0.12 ± 0.03 µM
same,Modality of inhibition of DHFR,[4],tight-binding inhibitors
NC(=O)C1=CN([C@@H]2O[C@H](COP(=O)(O)OP(=O)(O)OC[C@H]3O[C@@H](n4cnc5c(N)ncnc54)[C@H](OP(=O)(O)O)[C@@H]3O)[C@@H](O)[C@H]2O)C=CC1 [NADPH],Km,"[3]; Tsf-TbDHFR-TS, purified, read-out: NADPH Km^app",1.7 ± 0.2 µM
"Cc1ccc2nc(N)[nH]c(=O)c2c1Sc1ccncc1 [Nolatrexed, nolatrexed]",Ki,[1],0.039 µM and 0.0394 µM
same,EC50,"[5]; read-out: EC50, + Folate",21.8 ± 2 µM
same,EC50,"[5]; read-out: EC50, + Thymidine",32.7 ± 4.7 µM
same,EC50,"[5]; read-out: EC50, + Thymidine + Folate",39.6 ± 7.2 µM
same,EC50,"[5]; read-out: EC50, No addition",33.8 ± 3.7 µM
same,"DHFR Ki, Human",Human DHFR; ref Webber et al. [10],Inactive^h
same,Ki,[4]; [11],0.348 ± 0.03 µM
"Nc1nc2[nH]cc(CCc3ccc(C(=O)N[C@@H](CCC(=O)O)C(=O)O)cc3)c2c(=O)[nH]1 [Pemetrexed, pemetrexed]",Ki,[1],20.5 µM
same,EC50,[5]; [7],0.02 ± 0.001 µM
same,EC50,[5]; [8],12.9 ± 1.1 µM
same,EC50,[5]; [9],> 250 µM
same,EC50,[5]; [10],> 250 µM
same,Ki,Human DHFR; ref Shih et al. [11],0.007 µM
same,Ki,[4]; [11],0.29 ± 0.02 µM
"CCc1nc(N)nc(N)c1-c1ccc(Cl)cc1 [Pyrimethamine, pyrimethamine]","TS Ki, T. brucei",[1],Inactive ^**
same,EC50,[5]; [7],2.26 ± 0.32 µM
same,EC50,[5]; [8],6.32 ± 0.71 µM
same,EC50,[5]; [9],6.87 ± 0.33 µM
same,EC50,[5]; [10],2.01 ± 0.34 µM
same,Modality of inhibition of DHFR,[4],competitive inhibitors
"Cc1nc2ccc(CN(C)c3ccc(C(=O)N[C@@H](CCC(=O)O)C(=O)O)s3)cc2c(=O)[nH]1 [Raltitrexed, raltitrexed]",Ki,[1],0.215 ± 0.018 µM
same,EC50,[5]; [7],0.038 ± 0.001 µM
same,EC50,[5]; [8],64.8 ± 4.3 µM
same,EC50,[5]; [9],> 250 µM
same,EC50,[5]; [10],> 250 µM
same,Ki,Human DHFR; ref Jackman et al. [12],0.093 µM
same,Ki,Human TS; ref Jackman et al. [12],0.06 µM
same,Ki,[4]; [12],0.0704 ± 0.0072 µM
same,Ki,[4]; [11],0.0931 ± 0.0079 µM
same,Modality of inhibition of DHFR,[4],competitive inhibitors
"COc1cc(Cc2cnc(N)nc2N)cc(OC)c1OC [Trimethoprim, trimethoprim]",EC50,[5]; [7],48.8 ± 3.7 µM
same,EC50,[5]; [8],170 ± 28 µM
same,EC50,[5]; [9],145 ± 22 µM
same,EC50,[5]; [10],59.8 ± 8.6 µM
same,Ki,[4]; [12],0.0114 ± 0.0012 µM
same,Ki,[4]; [11],0.0176 ± 0.0015 µM
same,Modality of inhibition of DHFR,[4],competitive inhibitors
"COc1cc(NCc2ccc3nc(N)nc(N)c3c2C)cc(OC)c1OC [Trimetrexate, trimetrexate]","TS Ki, T. brucei",[1],Inactive ^*
same,EC50,[5]; [7],0.32 ± 0.02 µM
same,EC50,[5]; [8],1.23 ± 0.06 µM
same,EC50,[5]; [9],4.09 ± 0.35 µM
same,EC50,[5]; [10],2.82 ± 0.36 µM
same,Ki,[4]; [11],0.0006 µM and 0.000597 µM
same,Modality of inhibition of DHFR,[4],tight-binding inhibitors
"O=c1ccn([C@H]2C[C@H](O)[C@@H](COP(=O)(O)O)O2)c(=O)[nH]1 [dUMP, deoxyuridine monophosphate]",Increase in stability of TS activity,[6]; 200 μM dUMP vs no dUMP,700 fold
same,EC50,"[6]; absence of CH2THF, diluted lysate incubated 10 min, read-out: Half maximal concentration required to stabilise TS activity",12.6 ± 2.5 µM
C[C@H](O)[C@H](O)C1=Nc2c(nc(N)[nH]c2=O)NC1 [dihydrobiopterin],Activity as substrate for T. brucei DHFR,[3],inactive
Nc1nc2ncc([C@H](O)[C@H](O)CO)nc2c(=O)[nH]1 [neopterin],Activity as substrate for T. brucei DHFR,[3],inactive
C[C@H](O)C(=O)C1=Nc2c(nc(N)[nH]c2=O)NC1 [sepiapterin],Activity as substrate for T. brucei DHFR,[3],inactive
biopterin,Activity as substrate for T. brucei DHFR,[3],inactive
